Assays:
rheumatoid arthritis = experiment: Case study: patient with rheumatoid arthritis treated orally; assay type: in vivo, human; conditions: same patient, NSAIDs taken during the first 5 weeks of the disease onset
Method: This treatment was complemented with the regular practice of moderate physical exercises every 2-3 days, including exercises with weights, the application of cold or hot compresses, relaxation techniques, elevation of affected body parts, and at least 8 hours of sleep. Pain was treated with acetaminophen when needed. […] Then, the Omega 3-6-9 supplement was removed from the treatment and 100 mg niacin was added (Rite Aid Corporation, Harrisburg, Pa., USA) once a day during a week, twice a day for another week and 3 times daily for one more week (to a final dose of 300 mg/day). […] They never took DMARDs or steroids.

osteoarthritis = conditions: subjects with OA, 3 g per day; cited from earlier work
[1] = system: undercarboxylated osteocalcin; conditions: healthy subjects, per day; cited from earlier work
[2] = natural vitamin K; cited from earlier work
[3] = in fish and flax seed oils; cited from earlier work

O=C(O)Cc1ccccc1Nc1c(Cl)cccc1Cl [diclofenac]
benefit of NSAIDs (rheumatoid arthritis): without any significative beneficial result

CC(C)Cc1ccc(C(C)C(=O)O)cc1 (stereo not drawn) [ibuprofen]
benefit of NSAIDs (rheumatoid arthritis): without any significative beneficial result

NC(=O)c1cccnc1 [nicotinamide]
NSAID medication and joint mobility compared with placebo controls (osteoarthritis): reduced their non-steroidal anti-inflammatory (NSAID) medication and increased joint mobility significantly

CC1=C(C/C=C(\C)CCC[C@H](C)CCC[C@H](C)CCCC(C)C)C(=O)c2ccccc2C1=O [vitamin K1, 2-methyl-3-phytyl-1-4-naphthoquinone]
daily intake at which circulating undercarboxylated osteocalcin began to decrease [1]: 300 µg

vitamin K
safe dose [2]: up to 15 milligrams per day
solubility [3]: soluble
